According to the NIST ThermoML archive (doi:10.1021/je4004806):

Assay: xn = mol fraction of the nth substance listed
Conditions: 101 kPa, Liquid; for viscosity: Capillary tube (Ostwald / Ubbelohde) method; for mass density: Vibrating tube method

CCCCCCCC [octane] + CCCCO
Conditions | mass density [kg/m3] | viscosity [mPa·s]
293.15 K, x1 = 0.0967 | 792 | 2.243
293.15 K, x1 = 0.1999 | 775.92 | 1.722
293.15 K, x1 = 0.3022 | 761.86 | 1.363
293.15 K, x1 = 0.4064 | 749.45 | 1.078
293.15 K, x1 = 0.4995 | 739.67 | 0.903
293.15 K, x1 = 0.6004 | 730.23 | 0.766
293.15 K, x1 = 0.7002 | 721.95 | 0.672
293.15 K, x1 = 0.7999 | 714.61 | 0.603
293.15 K, x1 = 0.8991 | 708.11 | 0.571
293.15 K, x1 = 1 | 702.54 | 0.545
298.15 K, x1 = 0.0967 | 788.1 | 1.983
298.15 K, x1 = 0.1999 | 771.93 | 1.537
298.15 K, x1 = 0.3022 | 757.83 | 1.223
298.15 K, x1 = 0.4064 | 745.37 | 0.974
298.15 K, x1 = 0.4995 | 735.56 | 0.826
298.15 K, x1 = 0.6004 | 726.12 | 0.709
298.15 K, x1 = 0.7002 | 717.8 | 0.626
298.15 K, x1 = 0.7999 | 710.5 | 0.565
298.15 K, x1 = 0.8991 | 704 | 0.537
298.15 K, x1 = 1 | 698.49 | 0.513
303.15 K, x1 = 0.0967 | 784.17 | 1.762
303.15 K, x1 = 0.1999 | 767.92 | 1.375
303.15 K, x1 = 0.3022 | 753.77 | 1.102
303.15 K, x1 = 0.4064 | 741.27 | 0.885
303.15 K, x1 = 0.4995 | 731.43 | 0.758
303.15 K, x1 = 0.6004 | 721.97 | 0.655
303.15 K, x1 = 0.7002 | 713.65 | 0.584
303.15 K, x1 = 0.7999 | 706.35 | 0.529
303.15 K, x1 = 0.8991 | 699.87 | 0.503
303.15 K, x1 = 1 | 694.44 | 0.485
308.15 K, x1 = 0.0967 | 780.22 | 1.577
308.15 K, x1 = 0.1999 | 763.9 | 1.232
308.15 K, x1 = 0.3022 | 749.68 | 0.996
308.15 K, x1 = 0.4064 | 737.13 | 0.809
308.15 K, x1 = 0.4995 | 727.27 | 0.698
308.15 K, x1 = 0.6004 | 717.79 | 0.609
308.15 K, x1 = 0.7002 | 709.47 | 0.546
308.15 K, x1 = 0.7999 | 702.18 | 0.497
308.15 K, x1 = 0.8991 | 695.72 | 0.473
308.15 K, x1 = 1 | 690.37 | 0.459
313.15 K, x1 = 0.0967 | 776.24 | 1.4
313.15 K, x1 = 0.1999 | 759.83 | 1.11
313.15 K, x1 = 0.3022 | 745.56 | 0.904
313.15 K, x1 = 0.4064 | 732.96 | 0.74
313.15 K, x1 = 0.4995 | 723.07 | 0.644
313.15 K, x1 = 0.6004 | 713.59 | 0.566
313.15 K, x1 = 0.7002 | 705.27 | 0.511
313.15 K, x1 = 0.7999 | 697.97 | 0.467
313.15 K, x1 = 0.8991 | 691.54 | 0.447
313.15 K, x1 = 1 | 686.29 | 0.433
318.15 K, x1 = 0.0967 | 772.22 | 1.258
318.15 K, x1 = 0.1999 | 755.73 | 1
318.15 K, x1 = 0.3022 | 741.39 | 0.821
318.15 K, x1 = 0.4064 | 728.75 | 0.679
318.15 K, x1 = 0.4995 | 718.84 | 0.595
318.15 K, x1 = 0.6004 | 709.35 | 0.527
318.15 K, x1 = 0.7002 | 701.03 | 0.479
318.15 K, x1 = 0.7999 | 693.72 | 0.44
318.15 K, x1 = 0.8991 | 687.33 | 0.42
318.15 K, x1 = 1 | 682.19 | 0.412
323.15 K, x1 = 0.0967 | 768.16 | 1.134
323.15 K, x1 = 0.1999 | 751.58 | 0.907
323.15 K, x1 = 0.3022 | 737.18 | 0.751
323.15 K, x1 = 0.4064 | 724.5 | 0.625
323.15 K, x1 = 0.4995 | 714.57 | 0.552
323.15 K, x1 = 0.6004 | 705.07 | 0.493
323.15 K, x1 = 0.7002 | 696.75 | 0.45
323.15 K, x1 = 0.7999 | 689.48 | 0.415
323.15 K, x1 = 0.8991 | 683.1 | 0.397
323.15 K, x1 = 1 | 678.08 | 0.392
